Source: patent US20230295119A1, “SUBSTITUTED PYRIDINES FOR THE TREATMENT OF INFLAMMATORY DISEASES” (GOSSAMER BIO SERVICES, INC., priority 2020, published 2023)

How the values were obtained:
[1] = target: human JAK3 (Homo sapiens (Human), UniProt P52333); assay: JAK3 TR-FRET kinase assay; type: biochemical; details: JAK3 0.0125 nM
[2] = target: human JAK2 (Homo sapiens (Human), UniProt O60674); assay: JAK2 TR-FRET kinase assay; type: biochemical; details: JAK2 0.025 nM
[3] = target: human JAK1 (Homo sapiens (Human), UniProt P23458); assay: JAK1 TR-FRET kinase assay; type: biochemical; details: TR-FRET, JAK1 2.5 nM
[4] = target: TYK2 JH2 domain (Homo sapiens (Human), UniProt P29597); assay: TYK2 JH2 NanoBRET assay; type: binding; details: Table 20, read-out: TYK2 IC50
Procedure: HEK293T cells were transfected with NanoLuc-TYK2 JH2 Fusion Vector (Promega, customized) using Trans-IT reagent (Mirus, #MIR2700) and incubated for overnight in 37° C. incubator. […] Add 85 µL of cell suspension into white, polypropylene, 96-well plates (Corning, #3600). 90 µL of cells were used for no tracer control samples. 5 µL of diluted NanoBRET K10 tracer (Promega, #CS1810C122) were added to cells to a final concentration of 0.5 µM. Test compounds were diluted into DMSO, and then phenol-free opti-MEM to 10X of final concentration. 10 µL of diluted compounds were added into each well. The cells were incubated with test compound and tracer for 2 hours. 3XNanoBRET® Nano-Glo® Substrate and Extracellular NanoLuc® Inhibitor mixture were prepared and 50 µL of the mixture were added into the wells and mixed. […] NanoBRET signal was determined by using the ratio of acceptor signal and donor signal.

human JAK3, sequence (P52333 whole entry): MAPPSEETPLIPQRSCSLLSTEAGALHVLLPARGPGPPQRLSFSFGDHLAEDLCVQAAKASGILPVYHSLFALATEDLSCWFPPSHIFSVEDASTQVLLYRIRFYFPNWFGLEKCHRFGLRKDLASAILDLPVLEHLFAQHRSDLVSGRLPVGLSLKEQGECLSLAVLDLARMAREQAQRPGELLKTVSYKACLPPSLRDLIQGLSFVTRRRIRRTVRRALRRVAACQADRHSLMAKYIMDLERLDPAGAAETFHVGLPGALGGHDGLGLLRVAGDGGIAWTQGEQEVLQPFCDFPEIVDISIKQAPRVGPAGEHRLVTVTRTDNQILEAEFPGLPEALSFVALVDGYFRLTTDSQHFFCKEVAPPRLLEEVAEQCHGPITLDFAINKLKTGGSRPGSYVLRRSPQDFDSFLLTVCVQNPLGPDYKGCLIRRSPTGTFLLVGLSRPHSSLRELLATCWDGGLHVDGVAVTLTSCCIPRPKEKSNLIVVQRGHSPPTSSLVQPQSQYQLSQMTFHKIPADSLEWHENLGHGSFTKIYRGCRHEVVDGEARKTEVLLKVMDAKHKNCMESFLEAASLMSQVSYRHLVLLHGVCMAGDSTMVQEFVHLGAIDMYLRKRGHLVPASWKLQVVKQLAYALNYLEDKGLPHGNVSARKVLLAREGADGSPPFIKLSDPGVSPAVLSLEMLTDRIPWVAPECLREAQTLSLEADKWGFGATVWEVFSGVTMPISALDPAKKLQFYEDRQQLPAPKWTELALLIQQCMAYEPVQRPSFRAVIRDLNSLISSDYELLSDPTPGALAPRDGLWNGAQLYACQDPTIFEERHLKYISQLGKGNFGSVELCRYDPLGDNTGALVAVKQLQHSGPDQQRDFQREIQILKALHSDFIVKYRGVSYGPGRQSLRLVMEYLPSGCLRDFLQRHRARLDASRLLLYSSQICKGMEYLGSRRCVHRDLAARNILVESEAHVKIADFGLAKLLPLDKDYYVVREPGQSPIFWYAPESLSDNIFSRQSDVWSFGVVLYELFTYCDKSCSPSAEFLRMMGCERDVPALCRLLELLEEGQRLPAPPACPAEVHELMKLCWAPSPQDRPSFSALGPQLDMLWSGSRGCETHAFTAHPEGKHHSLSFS
human JAK2, sequence (O60674 whole entry): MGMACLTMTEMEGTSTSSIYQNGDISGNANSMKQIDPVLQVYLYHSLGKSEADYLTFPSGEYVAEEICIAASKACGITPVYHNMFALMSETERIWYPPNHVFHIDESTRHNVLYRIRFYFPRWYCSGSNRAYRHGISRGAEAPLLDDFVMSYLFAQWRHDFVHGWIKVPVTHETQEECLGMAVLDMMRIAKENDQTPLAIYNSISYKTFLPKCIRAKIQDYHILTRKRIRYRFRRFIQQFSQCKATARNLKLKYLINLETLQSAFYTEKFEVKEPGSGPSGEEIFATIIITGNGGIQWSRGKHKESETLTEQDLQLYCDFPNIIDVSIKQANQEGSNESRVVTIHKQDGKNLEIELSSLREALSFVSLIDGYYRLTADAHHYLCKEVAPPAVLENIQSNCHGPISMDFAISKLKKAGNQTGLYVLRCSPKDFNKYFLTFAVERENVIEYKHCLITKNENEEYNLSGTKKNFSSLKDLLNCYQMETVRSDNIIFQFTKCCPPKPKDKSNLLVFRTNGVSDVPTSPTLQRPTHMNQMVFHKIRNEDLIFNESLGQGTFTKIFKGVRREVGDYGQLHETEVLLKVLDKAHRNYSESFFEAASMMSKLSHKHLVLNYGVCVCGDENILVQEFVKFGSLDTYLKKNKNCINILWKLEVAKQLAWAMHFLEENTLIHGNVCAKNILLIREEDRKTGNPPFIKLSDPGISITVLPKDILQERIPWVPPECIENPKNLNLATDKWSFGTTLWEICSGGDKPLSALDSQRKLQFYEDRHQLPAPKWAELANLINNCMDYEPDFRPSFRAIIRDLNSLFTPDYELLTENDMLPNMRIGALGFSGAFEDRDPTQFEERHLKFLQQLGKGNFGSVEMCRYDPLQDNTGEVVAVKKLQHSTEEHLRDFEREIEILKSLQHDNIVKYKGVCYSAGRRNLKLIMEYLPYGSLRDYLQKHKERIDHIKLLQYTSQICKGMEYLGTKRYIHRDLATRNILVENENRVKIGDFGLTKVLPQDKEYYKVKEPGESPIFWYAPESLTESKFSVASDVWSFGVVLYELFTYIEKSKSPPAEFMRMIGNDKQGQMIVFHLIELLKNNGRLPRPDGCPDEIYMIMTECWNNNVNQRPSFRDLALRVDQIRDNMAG
human JAK1, sequence (P23458 whole entry, the tested form may be a part): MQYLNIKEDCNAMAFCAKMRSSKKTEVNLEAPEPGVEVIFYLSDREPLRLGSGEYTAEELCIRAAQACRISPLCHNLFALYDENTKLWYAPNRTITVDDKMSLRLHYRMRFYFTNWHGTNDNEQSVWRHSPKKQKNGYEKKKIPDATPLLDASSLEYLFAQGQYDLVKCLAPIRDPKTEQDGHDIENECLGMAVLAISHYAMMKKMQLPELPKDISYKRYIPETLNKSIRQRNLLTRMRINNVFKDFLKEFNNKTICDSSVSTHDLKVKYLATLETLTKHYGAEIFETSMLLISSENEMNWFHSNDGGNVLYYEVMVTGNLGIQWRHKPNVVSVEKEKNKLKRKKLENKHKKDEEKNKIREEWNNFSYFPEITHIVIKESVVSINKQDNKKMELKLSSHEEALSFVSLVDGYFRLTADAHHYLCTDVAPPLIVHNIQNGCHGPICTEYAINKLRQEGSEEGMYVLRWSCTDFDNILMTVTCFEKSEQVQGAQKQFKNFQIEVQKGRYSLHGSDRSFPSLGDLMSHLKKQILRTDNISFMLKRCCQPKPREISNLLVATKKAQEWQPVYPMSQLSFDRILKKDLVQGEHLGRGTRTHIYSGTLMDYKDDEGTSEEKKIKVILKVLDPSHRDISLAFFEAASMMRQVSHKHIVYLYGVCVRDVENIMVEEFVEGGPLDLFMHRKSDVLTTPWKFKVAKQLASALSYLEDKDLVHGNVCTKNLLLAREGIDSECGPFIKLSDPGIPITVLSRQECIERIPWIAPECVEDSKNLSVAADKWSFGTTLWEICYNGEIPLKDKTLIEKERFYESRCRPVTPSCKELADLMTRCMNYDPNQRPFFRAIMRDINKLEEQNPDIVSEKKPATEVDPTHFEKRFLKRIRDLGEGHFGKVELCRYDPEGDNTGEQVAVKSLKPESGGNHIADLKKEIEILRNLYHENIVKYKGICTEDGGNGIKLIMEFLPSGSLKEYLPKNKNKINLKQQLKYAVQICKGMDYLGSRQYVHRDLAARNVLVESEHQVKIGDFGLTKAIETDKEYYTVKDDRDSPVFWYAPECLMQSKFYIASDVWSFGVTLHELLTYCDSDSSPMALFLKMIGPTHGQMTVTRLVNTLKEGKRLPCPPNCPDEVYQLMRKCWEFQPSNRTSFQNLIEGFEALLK
TYK2 JH2 domain, sequence (P29597 589-875): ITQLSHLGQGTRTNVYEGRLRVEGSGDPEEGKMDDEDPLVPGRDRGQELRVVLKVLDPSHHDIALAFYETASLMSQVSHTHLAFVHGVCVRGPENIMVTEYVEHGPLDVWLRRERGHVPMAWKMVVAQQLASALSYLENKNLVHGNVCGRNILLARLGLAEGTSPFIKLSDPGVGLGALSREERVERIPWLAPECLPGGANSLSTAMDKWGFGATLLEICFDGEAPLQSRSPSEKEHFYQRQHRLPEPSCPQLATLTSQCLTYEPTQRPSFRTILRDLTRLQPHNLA

Row | Structure (SMILES) | IC50 [1] [nM] | IC50 [2] [nM] | IC50 [3] [nM] | IC50 [4] [nM]
1 | CCC(=O)c1cnc(Nc2cnc(CN3CCCC3)cn2)cc1Nc1cccc(-c2ncn(C)n2)c1OC [Compound 9AAAA] | ≥ 500 | ≥ 500 | ≥ 500 | < 5
2 | CCC(=O)c1cnc(Nc2ccc([C@H](C)N3CC4(COC4)C3)cn2)cc1Nc1cccc(-c2ncn(C)n2)c1OC [Compound 9AAA] | ≥ 500 | ≥ 500 | ≥ 500 | < 5
3 | CCC(=O)c1cnc(Nc2ccc(C(C)NCC(F)F)cn2)cc1Nc1cccc(-c2ncn(C)n2)c1OC (stereo not drawn) [Compound 9AA] | 50 to 500 | 50 to 500 | ≥ 500 | < 5
4 | CCC(=O)c1cnc(Nc2cnc(CN3CCN(C)CC3)cn2)cc1Nc1cccc(-c2ncn(C)n2)c1OC [Compound 9BBBB] | ≥ 500 | ≥ 500 | ≥ 500 | < 5
5 | CCC(=O)c1cnc(Nc2ccc([C@@H](C)N3CC4(COC4)C3)cn2)cc1Nc1cccc(-c2ncn(C)n2)c1OC [Compound 9BBB] | 50 to 500 | 50 to 500 | ≥ 500 | < 5
6 | CCC(=O)c1cnc(Nc2ccc(CN(C)CC#N)cn2)cc1Nc1cccc(-c2ncn(C)n2)c1OC [Compound 9BB] | ≥ 500 | ≥ 500 | ≥ 500 | 5 to 50
7 | CCC(=O)c1cnc(Nc2ncc(CN3CCCC3)cc2F)cc1Nc1cccc(-c2ncn(C)n2)c1OC [Compound 9CCCC] | ≥ 500 | ≥ 500 | ≥ 500 | 5 to 50
8 | CCC(=O)c1cnc(Nc2ccc(CN3CC4(CCOC4)C3)cn2)cc1Nc1cccc(-c2ncn(C)n2)c1OC [Compound 9CCC] | ≥ 500 | ≥ 500 | ≥ 500 | < 5
9 | CCC(=O)c1cnc(Nc2ccc(C(N)C(F)(F)F)cn2)cc1Nc1cccc(-c2ncn(C)n2)c1OC (stereo not drawn) [Compound 9CC] | ≥ 500 | ≥ 500 | ≥ 500 | < 5
10 | CCC(=O)c1cnc(Nc2ncc(CN(C)C)cc2F)cc1Nc1cccc(-c2ncn(C)n2)c1OC [Compound 9DDDD] | ≥ 500 | ≥ 500 | ≥ 500 | 5 to 50
11 | CCC(=O)c1cnc(Nc2ccc(CN(C)C)cn2)cc1Nc1cccc(-c2ncc(F)cn2)c1OC [Compound 9D] | ≥ 500 | ≥ 500 | ≥ 500 | 5 to 50
12 | CCC(=O)c1cnc(Nc2ncc(CNC)cc2F)cc1Nc1cccc(-c2ncn(C)n2)c1OC [Compound 9EEEE] | ≥ 500 | ≥ 500 | ≥ 500 | 5 to 50
13 | CCC(=O)c1cnc(Nc2ccc(CN(C)C3CC(F)(F)C3)cn2)cc1Nc1cccc(-c2ncn(C)n2)c1OC [Compound 9EEE] | ≥ 500 | ≥ 500 | ≥ 500 | < 5
14 | CCC(=O)c1cnc(Nc2ccc(CN(C)C)cn2)cc1Nc1cc(F)cc(-c2ncn(C)n2)c1OC [Compound 9E] | ≥ 500 | ≥ 500 | ≥ 500 | < 5
15 | CCC(=O)c1cnc(Nc2cccc(CN3CCCC3)n2)cc1Nc1cccc(-c2ncn(C)n2)c1OC [Compound 9FFFF] | ≥ 500 | ≥ 500 | ≥ 500 | 5 to 50

Next, values leading:

Row | IC50 [1] [nM] | IC50 [2] [nM] | IC50 [3] [nM] | IC50 [4] [nM] | Structure (SMILES)
16 | ≥ 500 | ≥ 500 | ≥ 500 | < 5 | CCC(=O)c1cnc(Nc2ccc(CN(C)C)cn2)cc1Nc1cccc(-c2ncn(C)n2)c1OC [Compound 9A, 1-(6-((5-((dimethylamino)methyl)pyridin-2-yl)amino)-4-((2-methoxy-3-(1-methyl-1H-1,2,4-triazol-3-yl)phenyl)amino)pyridin-3-yl)propan-1-one]
17 | ≥ 500 | ≥ 500 | ≥ 500 | < 5 | CCC(=O)c1cnc(Nc2ccc(CN)cn2)cc1Nc1cccc(-c2ncn(C)n2)c1OC [Compound 9B]
18 | ≥ 500 | ≥ 500 | ≥ 500 | < 5 | CCC(=O)c1cnc(Nc2ccc(CNC)cn2)cc1Nc1cccc(-c2ncn(C)n2)c1OC [Compound 9C]
19 | ≥ 500 | ≥ 500 | ≥ 500 | < 5 | CCC(=O)c1cnc(Nc2ccc(CN(C)C3COC3)cn2)cc1Nc1cccc(-c2ncn(C)n2)c1OC [Compound 9DDD]
20 | ≥ 500 | ≥ 500 | ≥ 500 | < 5 | CCC(=O)c1cnc(Nc2ccc(CN3CC(OC)C3)cn2)cc1Nc1cccc(-c2ncn(C)n2)c1OC [Compound 9DD]
21 | 50 to 500 | ≥ 500 | ≥ 500 | < 5 | CCC(=O)c1cnc(Nc2ccc(CN3CC(F)C3)cn2)cc1Nc1cccc(-c2ncn(C)n2)c1OC [Compound 9EE]
